Literature values in publication PMC7001544 (JHEP Reports, 2019).

## Cc1c(C)c2c(c(C)c1O)CCC(C)(COc1ccc(CC3SC(=O)NC3=O)cc1)O2 (centres unmarked) [troglitazone]
HBV
  effect on internalization and infection of HBV: interfere with internalization and infection of HBV
NTCP
  effect on NTCP oligomerization: prevent NTCP oligomerization
